Test results taken from ChEMBL document CHEMBL1155965, “Addressing the malaria drug resistance challenge using flow cytometry to discover new antimalarials” (Bioorg Med Chem Lett, 2009).
One block for each compound: values may come before it.

Columns and labels:
Plasmodium falciparum [1] = assay: Antimalarial activity against Plasmodium falciparum W2mef ring form by hoechst 33342-thiazole orange stain based flow cytometry assay; type: functional, organism-based
Plasmodium falciparum [2] = assay: Antimalarial activity against Plasmodium falciparum W2mef at 10 uM after 48 hrs by hoechst 33342-thiazole orange stain based flow cytometry assay; type: functional
Plasmodium falciparum [3] = assay: Antimalarial activity against Plasmodium falciparum W2mef schizont form by hoechst 33342-thiazole orange stain based flow cytometry assay; type: functional, organism-based
Plasmodium falciparum [4] = assay: Antimalarial activity against Plasmodium falciparum W2mef trophozoite form by hoechst 33342-thiazole orange stain based flow cytometry assay; type: functional, organism-based
Plasmodium falciparum [5] = assay: Antimalarial activity against Plasmodium falciparum W2mef assessed as DNA positive erythrocytes by hoechst 33342-thiazole orange stain based flow cytometry assay; type: functional, organism-based
Plasmodium falciparum [6] = assay: microbe, parasite or virus in culture; conditions: W2mef
Description: Antimalarial activity against Plasmodium falciparum W2mef by hypoxanthine uptake assay

[7] = Cytotoxicity against human erythrocytes assessed as change in internal complexity by flow cytometry; type: cell-based; conditions: erythrocyte
[8] = Cytotoxicity against human erythrocytes assessed as change in cell shape by flow cytometry; type: cell-based; conditions: erythrocyte
[9] = Cytotoxicity against human erythrocytes assessed as intact cells by propidium iodide stain based flow cytometry; type: cell-based, Erythrocyte; conditions: read-out: Activity

IC50 (Plasmodium falciparum [1]): 328 nM | IC50 (Plasmodium falciparum [3]): 376 nM | IC50 (Plasmodium falciparum [4]): 509 nM | IC50 (Plasmodium falciparum [5]): 384 nM
Compound: CNC(=O)c1cc(Oc2ccc(NC(=O)Nc3ccc(Cl)c(C(F)(F)F)c3)cc2)ccn1 [SORAFENIB]
inhibition at 10 µM (Plasmodium falciparum [2]): 87.5%

Compound: Cn1cncc1CSCc1ccc(I)cc1
inhibition at 10 µM (Plasmodium falciparum [2]): 41.9%

Compound: O=S(=O)(c1ccccc1)C(CCCn1ccnc1)c1ccc(I)cc1 (centres undefined)
inhibition at 10 µM (Plasmodium falciparum [2]): 3.46%

IC50 (Plasmodium falciparum [1]): 1200 nM | IC50 (Plasmodium falciparum [3]): 1210 nM | IC50 (Plasmodium falciparum [4]): 2000 nM | IC50 (Plasmodium falciparum [5]): 1100 nM
Compound: Cc1cc(/C=C/C#N)cc(C)c1Nc1ccnc(Nc2ccc(C#N)cc2)n1 [RILPIVIRINE]
inhibition at 10 µM (Plasmodium falciparum [2]): 49.8%

Compound: Cn1cc(-c2[nH]c3cc(N)cc4c3c2C=NNC4=O)cn1
inhibition at 10 µM (Plasmodium falciparum [2]): 9.17%

Compound: C/C(O)=C(\C#N)C(=O)Nc1ccc(C(F)(F)F)cc1 [TERIFLUNOMIDE]
inhibition at 10 µM (Plasmodium falciparum [2]): 4.96%

Compound: Oc1ccc(C(O)C2CCc3ccccc3C2)cc1 (centres undefined)
inhibition at 10 µM (Plasmodium falciparum [2]): 14.6%

IC50 (Plasmodium falciparum [1]): 228 nM | IC50 (Plasmodium falciparum [3]): 317 nM | IC50 (Plasmodium falciparum [4]): 620 nM | IC50 (Plasmodium falciparum [5]): 320 nM
Compound: Cc1[nH]c(/C=C2\C(=O)Nc3ccc(S(=O)(=O)N(C)c4cccc(Cl)c4)cc32)c(C)c1C(=O)N1CCN(C)CC1
inhibition at 10 µM (Plasmodium falciparum [2]): 85.1%

Compound: N#Cc1ccc(Nc2nc(O)cc(O)n2)cc1
inhibition at 10 µM (Plasmodium falciparum [2]): 1.46%

Compound: O=C(Cc1ccc(O)cc1)N1CCc2ccccc2C1
inhibition at 10 µM (Plasmodium falciparum [2]): 1.1%

Compound: Clc1ccc(C2(c3ccc4noc(-c5cccc(Cl)c5)c4c3)OCCO2)cc1
inhibition at 10 µM (Plasmodium falciparum [2]): 54.5%

Compound: Cn1cnc(C[S+]([O-])Cc2ccc(I)cc2)c1 (centres undefined)
inhibition at 10 µM (Plasmodium falciparum [2]): 6.31%

Compound: Oc1c(F)cc(CN2CCc3ccccc3C2)cc1F
inhibition at 10 µM (Plasmodium falciparum [2]): 8.47%

Compound: COC(=O)c1cn2nc[nH]c(=O)c2c1C
inhibition at 10 µM (Plasmodium falciparum [2]): 9.62%

IC50 (Plasmodium falciparum [1]): 1080 nM | IC50 (Plasmodium falciparum [3]): 2000 nM | IC50 (Plasmodium falciparum [4]): 16600 nM | IC50 (Plasmodium falciparum [5]): 3770 nM
Compound: Cn1cnc(CSCc2ccc(I)cc2)c1
inhibition at 10 µM (Plasmodium falciparum [2]): 74.9%

Compound: Cc1cc(O)cc(C)c1CN1CCc2ccccc2C1
inhibition at 10 µM (Plasmodium falciparum [2]): 6.76%

Compound: Ic1ccc(CSCc2c[nH]cn2)cc1
inhibition at 10 µM (Plasmodium falciparum [2]): 37.1%

Compound: CCN(CC)C(=O)[C@@]1(c2ccccc2)C[C@H]1CNC(=O)O[C@@H]1O[C@H](C(=O)OC)[C@@H](O)[C@H](O)[C@H]1O
inhibition at 10 µM (Plasmodium falciparum [2]): 3.16%

Compound: Fc1cccc(-c2nc3ccncc3[nH]2)c1F
inhibition at 10 µM (Plasmodium falciparum [2]): 14.4%

Compound: O=C(c1ccc(Cl)cc1)c1ccc2[nH]c(=O)cc(-c3cccc(Cl)c3)c2c1
inhibition at 10 µM (Plasmodium falciparum [2]): 36.1%

Compound: COc1cc2ncn(-c3sc(C(N)=O)cc3OCc3ccccc3C(F)(F)F)c2cc1OC
inhibition at 10 µM (Plasmodium falciparum [2]): 24.6%

Compound: CC(C)C1=NN=CC1C1CC2CCC(C1)N2 (centres undefined)
inhibition at 10 µM (Plasmodium falciparum [2]): 0%

Compound: Cc1cc(I)ccc1Nc1c(C(=O)N2CCNCC2)cc2nc[nH]c2c1F
inhibition at 10 µM (Plasmodium falciparum [2]): 0.25%

Compound: C[C@@H]1CC[C@H]2[C@@H](C)C(=O)O[C@@H]3O[C@@]4(C)CC[C@@H]1[C@]32OO4 [ARTEMISININ]
IC50 (Plasmodium falciparum [6]): 12 nM | IC50 (Plasmodium falciparum [1]): 20 nM | IC50 (Plasmodium falciparum [3]): 8 nM | IC50 (Plasmodium falciparum [4]): 7 nM | IC50 (Plasmodium falciparum [5]): 11 nM

Compound: Cc1ccc(-c2nc3c(Br)cc4c(c3[nH]2)C(=O)NC(=O)C4(C)C)cc1[N+](=O)[O-]
inhibition at 10 µM (Plasmodium falciparum [2]): 11.2%

Compound: Cn1cnc(CSCc2ccccc2)c1
inhibition at 10 µM (Plasmodium falciparum [2]): 42.1%

Compound: O=C(NCCc1c[nH]cn1)/C(Cc1ccccc1)=N\O
inhibition at 10 µM (Plasmodium falciparum [2]): 2.61%

Compound: OC(c1cc(C(F)(F)F)nc2c(C(F)(F)F)cccc12)C1CCCCN1 (centres undefined) [MEFLOQUINE]
IC50 (Plasmodium falciparum [6]): 142 nM | IC50 (Plasmodium falciparum [1]): 147 nM | IC50 (Plasmodium falciparum [3]): 44 nM | IC50 (Plasmodium falciparum [4]): 74 nM

IC50 (Plasmodium falciparum [1]): 409 nM | IC50 (Plasmodium falciparum [3]): 716 nM | IC50 (Plasmodium falciparum [4]): 726 nM | IC50 (Plasmodium falciparum [5]): 506 nM
Compound: Cc1cc(C#N)cc(C)c1Oc1nc(Nc2ccc(C#N)cc2)nc(N)c1Br [ETRAVIRINE]
inhibition at 10 µM (Plasmodium falciparum [2]): 91.7% | Activity [7]: Non-toxic | Activity [8]: Non-toxic | viability [9]: > 98.5%
